Assay results taken from PMC12622164, “Endothelial CYB5R1 is a Coenzyme Q reductase that suppresses ferroptosis and atherosclerosis” (Research Square, 2025).

Target: T1, recombinant CYB5R1 (Δ1–29) (Homo sapiens, UniProt Q9UHQ9)
T1 construct: soluble form lacking first 29 residues (membrane anchor); His6-SUMO (Smt3) fusion cleaved by Ulp1; E. coli SoluBL21
T1 sequence (Q9UHQ9 30-305): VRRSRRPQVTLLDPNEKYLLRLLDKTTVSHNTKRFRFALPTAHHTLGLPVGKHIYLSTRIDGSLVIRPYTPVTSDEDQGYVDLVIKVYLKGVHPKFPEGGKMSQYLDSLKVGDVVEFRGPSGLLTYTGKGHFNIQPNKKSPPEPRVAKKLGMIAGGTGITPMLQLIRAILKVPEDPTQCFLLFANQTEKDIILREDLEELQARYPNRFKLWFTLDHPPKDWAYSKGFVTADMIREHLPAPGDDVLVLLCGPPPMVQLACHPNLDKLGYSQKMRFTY
Experiment: NADH consumption at […] nm
Format: biochemical
Conditions: 200 uM CoQ0; 500 uM NADH; 100 mM Tris-HCl pH 7.4; no CYB5B

In the case of `COC1=C(OC)C(=O)C(C)=CC1=O` [CoQ0, 2,3-dimethoxy-5-methyl-1,4-benzoquinone], the “NADH consumption at 340 nm” value is reported as “recombinant CYB5R1 readily reduced CoQ0, a water-soluble derivative of CoQ10”.
